Results on 4 compounds are retold here after patent EP2338485A1, “Substituted 1,3-dioxoisoindolines as medicine” (Grünenthal GmbH, priority 2009, dated 2011).

Read-outs that look alike come from different tables or passages of the source.

The test system of the assay is vGLUT1- bzw. vGLUT2-Transporter. In words: Glutamate uptake into rat crude synaptic vesicles ([3H]-glutamate uptake). The class given is biochemical, Ratte. The note with it: for VGLUT (Ratte), Hemmung [%]: test concentration not given. From the text:
I. Funktionelle Untersuchung an den vGLUT1- bzw. vGLUT2-Transportern
Die agonistische bzw. antagonistische Wirkung der zu untersuchenden Verbindungen am vGLUT1- bzw. vGLUT2-Transporter der Spezies Ratte kann mit folgendem Assay bestimmt werden.
Glutamat-Uptake in Rattenvesikel ('rat crude synaptic vesicles')
Die Präparation von Vesikeln wurde aus Rattengehirn-homogenaten (männlichen Ratten, Stamm Wistar SPF, 150-250 g Gewicht) durchgeführt gemäß Roseth et al. (1995) J. Neurochem. 65: 96-103, der sich auf Whittaker et al. (1964) Biochem J. 90, 293-303 und Fykse und Fonnum (1988) J. Neurochem. 50: 1237-1242 bezieht.
Hierzu wurden frisch entnommene Rattengehirne in 0,32 M Saccharose, 10 mM TRIS-maleat, 1 mM EGTA, pH 7,4 (10 ml/g Frischgewicht) mit einem Potter-Homogenisator (Fa. Braun/Melsungen; 5 Kolbenhübe bei 800 Upm) unter Eiskühlung homogenisiert und anschließend für 10 Minuten bei 3.000 g und 4°C zentrifugiert. Der resultierende Überstand wurde bei 20.000 g für 30 Minuten bei 4°C zentrifugiert. Das entstandene Pellet wurde dann im Verhältnis 1:3 mit 10 mM TRIS-maleate, 0,1 mM EGTA, pH 7,4 osmotisch geschockt und die Suspension bei 17000g für 30 min (4°C) zentrifugiert. Die im Überstand verbliebenen Vesikel wurden nun auf einen Dichtegradienten aus 0,6 M Saccharose in 10 mM TRIS-maleat, 1 mM EGTA, pH 7.4 und 0.4 M Saccharose in 10 mM TRIS-maleat, 1 mM EGTA, pH 7.4 geschichtet. Eine Ultrazentrifugation der Gradienten im Ausschwingrotor bei 65000g für 2h (4°C) schloss sich an. Die Vesikel-Fraktion wurde von der 0.4 M Saccharose-Bande isoliert und im Uptake-Versuch eingesetzt.
Die Substratlösung für den Uptake von [^3H]-Glutamat bestand aus ATP (neutralisiert mit Trisma base; 2 mM im Endansatz), Glutamat (0.5 mM im Endansatz) und ^3H-Glutamat (0.5 µCi im Endansatz). In 14 ml-Reagiergefäßen (Sarstedt, Artikel-Nr.: 798438) wurden jeweils 0,3 ml Gesamtvolumina (n=2/Probe) pipettiert in der folgenden Reihenfolge: 1.) 165 µl Inkubationspuffer (110 mM Kaliumtartrat, 10 mM TRIS-maleat, pH 7,4, 4 mM MgCl2), 2.) 10 µl Testsubstanz oder Vehikelkontrolle oder blank, 3.) 100 µl synaptische Vesikel. Es schloss sich eine Vorinkubation von 15 min bei 30°C an (nur blank-Ansätze befanden sich hierbei auf Eis). Danach wurde der Uptake durch Zugabe von 25 µl der oben beschriebenen Substratlösung gestartet. Die Reaktion wurde nach 5 min durch Zugabe von 7,0 ml eiskalter 150 mM KCI gestoppt. Anschließend wurden die Proben mit Hilfe des Brandel Cell Harvesters Typ M-24R über einen Membranfilter der Porengröße 0,8 µm abgesaugt und zweimal mit eiskalter 150 mM KCI nachgewaschen. Die Messung erfolgte am beta-Counter nach 15 h in 10 ml Szintillatorflüssigkeit (Filter Count).
Die Affinität der Verbindungen der allgemeinen Formel (I) für den vGLUT1- bzw. vGLUT2-Transporter wurde wie vorstehend beschrieben bestimmt (Pharmakologische Methoden)

Setting [1] is: compound freshly dissolved from the solid substance, read-out: VGLUT (Ratte), ICso-Fest.

For `O=C(O)c1ccccc1N1C(=O)c2ccc(Oc3ccc(Oc4ccc5c(c4)C(=O)N(c4ccccc4C(=O)O)C5=O)cc3)cc2C1=O` [Beispiel 1, 2,2'-(5,5'-(1,4-Phenylenbis(oxy))bis(1,3-dioxoisoindolin-5,2-diyl))dibenzoesäure], the “VGLUT (Ratte), Hemmung [%]” value came out at 74%. The IC50 (read-out: VGLUT (Ratte), IC50) was determined as 3.81 µM.
Take `O=C(Nc1ccccc1C(=O)O)c1cccc(N2C(=O)c3ccc(C(=O)Nc4ccccc4C(=O)O)cc3C2=O)c1` [Beispiel 3, 2-(3-(5-(2-Carboxyphenylcarbamoyl)-1,3-dioxoisoindolin-2-yl)benzamido)-benzoesäure]: the “VGLUT (Ratte), Hemmung [%]” value worked out at 97%. Also, where the note is “read-out: VGLUT (Ratte), IC50”, the IC50 stood at 0.56 µM.
Take `O=C(Nc1ccc(O)cc1C(=O)O)c1ccc(N2C(=O)c3ccc(C(=O)Nc4ccc(O)cc4C(=O)O)cc3C2=O)cc1` [Beispiel 2, 2-(4-(5-(2-Carboxy-4-hydroxyphenylcarbamoyl)-1,3-dioxoisoindolin-2-yl)benzamido)-5-hydroxybenzoesäure]: the “VGLUT (Ratte), Hemmung [%]” value is reported as 98%. The IC50 under setting [1] came out at 0.032 µM. Further, for the setting “read-out: VGLUT (Ratte), IC50”, the IC50 amounted to 0.0946 µM.
For `O=C(Nc1ccc(O)cc1C(=O)O)c1ccc(N2C(=O)c3ccc(C(=O)Nc4ccc(O)cc4C(=O)O)cc3C2=O)cc1` [Beispiel 4, 2-(4-(5-(2-Carboxylato-4-hydroxyphenylcarbamoyl)-1,3-dioxoisoindolin-2-yl)-benzamido)-5-hydroxybenzoesäure, Natriumsalz], under setting [1], the IC50 was found to be 0.154 µM.
